In US11970509B1, “Water soluble nano-sized imine Ru(III) complex based on 4-aminobenzene sodium sulphonate for biomedical applications” (KING FAISAL UNIVERSITY, priority 2023, dated 2024):
In brackets after ≈: the same amount, converted by molar mass.

Assays:
Breast cancer cells line = assay: Cytotoxic activity, Sulfo-Rhodamine-B-stain (SRB), breast cancer cell line; details: Homo sapiens, 48 h
Aspergillus flavus = assay: Antifungal activity, well diffusion method, Aspergillus flavus; type: cell-based
Description: To evaluate antimicrobial activity, the fungal strain (Aspergillus flavus), was used. These strains cultured in nutrient agar and Muller-Hinton medium. Fluconazole compounds were used as a standard drug for comparison.
Antifungal activities of the prepared water soluble nano-complex were studied against three fungal cultures using well diffusion method. The tested fungi were inoculated in Sabouraud dextrose broth medium (Hi-Media Mumbai) and incubated at 35° C. for 72 h and subsequently a suspension of about 1.60×10^4-6.00×10^4 c.f.u/ml was introduced agar plates and a sterile glass spreader was used for even distribution of the inoculum. The discs measuring 6 mm in diameter were prepared from Whatman No. 1 filter paper and sterilized by dry heat at 140° C. for 1 h. The sterile discs previously soaked in known concentration of the tested compounds were placed in Sabouraud dextrose Agar (SDA) plates. The plates were inverted and incubated at 35° C. for 7 days. The susceptibility was assessed on the basis of diameter of inhibition against albicans and non-albicans strain of fungi.

Escherichia coli(-ve) = assay: Antimicrobial activity, agar well diffusion method, E. coli; type: cell-based
Description: To evaluate antimicrobial activity, the bacterial strain Escherichia coli(-ve), was used. These strains cultured in nutrient agar and Muller-Hinton medium. Ofloxacin compounds were used as a standard drug for comparison. The susceptibilities of such growth rate of microorganisms were measured in vitro by agar well diffusion method. The tested nano complex was dissolved in dimethylsulfoxide at different concentrations (10 and 20 mg/ml). 1 cm^3 of a 24 h broth culture containing 10^6 CFU/cm^3 was placed in sterile Petri-dishes. Molten nutrient agar (15 cm^3) maintained at 45° C. was then poured into the Petri-dishes and allowed to solidify. Then holes of 6 mm diameter were formed in the agar using a sterile cork borer and these holes were completely filled with the test solutions. The plates were incubated for 24 h at 37° C. After the incubation period, the zone of inhibition of each well was determined by measuring the zones of growth inhibition (mm) against the test microorganisms with zone reader (Hi Antibiotic zone scale). […] The measurements were made in triplicate for each compound and their average values are reported.

SMILES: COc1cccc2c1C(=O)c1c(O)c3c(c(O)c1C2=O)C[C@@](O)(C(=O)CO)C[C@@H]3O[C@H]1C[C@H](N)[C@H](O)[C@H](C)O1 [Doxorubicin, reference compound]
- IC50 (Breast cancer cells line): 4 µg/mL (≈ 7.36 µM)

SMILES: OC(Cn1cncn1)(Cn1cncn1)c1ccc(F)cc1F [Fluconazol, reference compound]
- MIC (Aspergillus flavus): 1.75 µg/mL (≈ 5.71 µM)
- inhibition zone (Aspergillus flavus; well diffusion, 35° C. for 7 days): 28 mm

SMILES: CC1COc2c(N3CCN(C)CC3)c(F)cc3c(=O)c(C(=O)O)cn1c23 (centres unmarked) [Ofloxacin, reference compound]
- MIC (Escherichia coli(-ve); Escherichia coli): 2.5 µg/mL (≈ 6.92 µM)
- inhibition zone (Escherichia coli(-ve); agar well diffusion, 24 h at 37° C.): 38 mm
